SMILES strings stand for the structures.

From PMC7828518 (2021) come the findings set out here.

Assay [1] relates to F10T (DNA, hairpin, Sp18 linker joins 3' end of first TATAGCTATA to 5' end of second (one molecule)) TATAGCTATA/TATAGCTATA
The assay can be described thus: FRET DNA melting. Particulars: Li+ (100 mM LiCl) per methods; Figure 3 legend: 10 mM KCl, 90 mM LiCl; 10 mM lithium cacodylate pH 7.3; up to 10 μM compound, 0.2 μM DNA.

Assay [2] concerns F21T (DNA, G4) GGGTTAGGGTTAGGGTTAGGG
The assay is described as follows: FRET DNA melting. Particulars: K+ (10 mM KCl), Li+ (90 mM LiCl); 10 mM lithium cacodylate pH 7.3; 5 μM compound, 0.2 μM DNA.

Assay [3] concerns Tel22 (DNA, G4) AGGGTTAGGGTTAGGGTTAGGG
The assay can be described thus: circular dichroism titration. Particulars: K+ (10 mM KCl), Li+ (90 mM LiCl); 10 mM lithium cacodylate pH 7.3, 25 °C; 4 μM DNA, ratios 1:1 to 1:5. For orientation: Circular dichroism is widely used to follow secondary structure.

Assay [4] relates to ds17 (DNA, duplex) GGGTTACTACGAACTGG/CCAGTTCGTAGTAACCC
The assay can be described thus: equilibrium dialysis (noncompetition). Particulars: K+ (100 mM KCl, 10 mM potassium phosphate), pH 7.2, 22 °C, apparent, per base pair (75 μM monomeric units), 2 μM compound. For orientation: Equilibrium dialysis compares concentrations on both sides of a semipermeable membrane.

The subject of assay [5] is Tel22 (DNA, G4) AGGGTTAGGGTTAGGGTTAGGG
The assay can be described thus: equilibrium dialysis (noncompetition). The following applies: K+ (100 mM KCl, 10 mM potassium phosphate); pH 7.2, 22 °C; apparent; per tetrad (75 μM monomeric units); 2 μM compound; per base.

With `N=C(N)N/N=C/c1ccc2ccc3ccc(/C=N/NC(=N)N)nc3c2n1`, the entries for the “∆Tm” value in assay [1] and in assay [2] were ~ 0 °C and 7 ± 1 °C, respectively. Besides, the binding entry in assay [3] is on record as “yes”. Also, the Kapp is on record as 0.029 ± 0.004 × 10^6 M^-1 in assay [4] and 2.3 ± 0.5 × 10^6 M^-1 in assay [5].
